Each block holds one molecule with its values, some of them ahead of it.
How the values were obtained:
human D2 receptors [1] = target: T1, human D2 receptors (Homo sapiens, UniProt P14416); test: cell-based
[2] = refractory schizophrenic patients; cited from earlier work
human 5HT2A receptors = human 5HT2A receptors (Homo sapiens, UniProt P28223)
human D2 receptors [3] = target: T1, human D2 receptors; details: R-SAT agonist; short form of the D2 receptor; +/− standard deviation of three to eight determinations
[4] = tested on: remaining monoaminergic receptor subtypes; test: Intrinsic activity at remaining monoaminergic receptor subtypes
spontaneous locomotion = test: Spontaneous locomotion; assay type: in vivo; details: s.c.; rats (FIG. 2A)
From the text: (§1) . In FIG. 2A and 2B, asterisks indicate statistical significance (p<0.05) compared to respective vehicle control. […]

[5] = tested on: hyperactivity induced by d-amphetamine; test: Amphetamine induced hyperactivity; assay type: in vivo; details: mice
[6] = tested on: levodopa-associated dyskinesias and motor response fluctuations; test: Double blind, placebo controlled study in parkinsonian patients; assay type: in vivo; details: Patient Group II
Protocol: […]. […] […]. The compound of formula (I) is administered once daily for four weeks, with the dose escalating once each week. Assessments are made on the first day of each dose escalation.
The study is conducted on an […].
Patients who participate in the study have particular characteristics. The patients are between 30 and 80 years of age, inclusively. The patients had been diagnosed with idiopathic Parkinson's disease based on the presence of a characteristic clinical history and neurological findings.
The sample size is calculated for the primary endpoint: the Unified Parkinson's Disease Rating Scale (UPDRS) part III motor examination. […]. […] In this phase 2 study we will accept a two-sided alpha at a 0.05 significance level. Four patients will be added for the placebo group, totaling 21 subjects enrolled in the study.
Patients enter the levodopa infusion optimal rate determination (dose finding) portion of the study as soon as all prohibited medication has been withdrawn for at least four weeks.
Intravenous infusion of levodopa is conducted in an in-patient ward. […]. During the first and second days of optimal rate determination, two baseline UPDRS ratings are performed prior to levodopa infusion. […] Dyskinesia severity is similar to that experienced with each patient's usual therapeutic regimen. Levodopa will be administered by means of an indwelling intravenous catheter. The initial infusion rate of levodopa will not exceed 80 mg/hr.
Levodopa infusions will ordinarily last up to 8 hours, but may be continued uninterrupted for several days or be repeated on other days to obtain reliable assessment of motor function. The peripheral decarboxylase inhibitor carbidopa (50 mg, given every 3 hours) is administered orally starting at least one hour prior to intravenous administration of levodopa and continuing until levodopa effects have worn off. […]
Throughout the study, patients are evaluated weekly for drug safety and tolerability during their inpatient admission and two weeks after treatment for an outpatient follow-up visit. […]

[7] = tested on: hyperactivity induced by MK-801 (dizocilpine); test: MK-801 induced hyperactivity; assay type: in vivo, rats
From the text: as §1

[8] = tested on: L-dopa induced dyskinesias; test: L-dopa induced dyskinesia in MPTP monkeys; details: s.c.; MPTP dyskinetic primates; dyskinetic movements scored as percentage of placebo (FIG. 3)

Sequence of human 5HT2A receptors (P28223 whole entry): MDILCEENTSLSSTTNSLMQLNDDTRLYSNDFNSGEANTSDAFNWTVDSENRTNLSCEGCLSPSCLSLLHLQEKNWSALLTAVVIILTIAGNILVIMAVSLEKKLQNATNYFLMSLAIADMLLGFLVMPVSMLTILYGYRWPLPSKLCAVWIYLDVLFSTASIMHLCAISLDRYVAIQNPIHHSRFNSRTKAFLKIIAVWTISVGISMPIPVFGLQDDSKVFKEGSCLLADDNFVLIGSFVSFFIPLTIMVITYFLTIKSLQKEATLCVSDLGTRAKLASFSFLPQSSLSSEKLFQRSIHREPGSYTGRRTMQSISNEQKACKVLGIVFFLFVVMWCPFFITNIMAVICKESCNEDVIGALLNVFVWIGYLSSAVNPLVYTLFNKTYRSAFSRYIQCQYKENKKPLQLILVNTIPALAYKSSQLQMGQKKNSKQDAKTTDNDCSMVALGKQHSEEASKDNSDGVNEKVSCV
T1 sequence (P14416 1-414 isoform P14416-2): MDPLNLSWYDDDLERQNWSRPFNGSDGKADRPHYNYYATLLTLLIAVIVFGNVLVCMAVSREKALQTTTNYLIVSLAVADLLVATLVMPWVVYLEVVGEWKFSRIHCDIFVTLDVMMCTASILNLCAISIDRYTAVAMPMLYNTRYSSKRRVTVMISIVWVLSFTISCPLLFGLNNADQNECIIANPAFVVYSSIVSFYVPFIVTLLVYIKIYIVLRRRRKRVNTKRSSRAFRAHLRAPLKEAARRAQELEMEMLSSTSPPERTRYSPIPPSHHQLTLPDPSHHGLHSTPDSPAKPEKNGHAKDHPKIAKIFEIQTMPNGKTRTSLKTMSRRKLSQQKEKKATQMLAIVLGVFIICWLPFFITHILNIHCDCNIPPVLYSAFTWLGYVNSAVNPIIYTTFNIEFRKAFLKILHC

Compound: CC(C)C[C@H]1C(=O)N2CCC[C@H]2[C@]2(O)O[C@](NC(=O)[C@@H]3C=C4c5cccc6[nH]c(Br)c(c56)C[C@H]4N(C)C3)(C(C)C)C(=O)N12 [Bromocriptine]
EC50 (human D2 receptors [1]): 0.43 nM

Compound: CN1CCN(C2=Nc3cc(Cl)ccc3Nc3ccccc32)CC1 [Clozapine]
average serum levels associated with therapeutic response [2]: ≥ 250 ng/mL

Potency against serotonin 5-HT2A receptor (FIG. 1B) (human 5HT2A receptors; R-SAT agonist, reference full agonist serotonin): no response
Compound: NCCc1ccc(O)c(O)c1 [Dopamine]

Compound: CCCN(CCC)CCc1cccc2c1CC(=O)N2 [Ropinirole]
Serotonin 2A, —Log (EC50) (human 5HT2A receptors): 6.85 +/− 0.77
Dopamine D2, —Log (EC50) (human D2 receptors [3]): 8.19 +/− 0.58

Compound: CC(C)COc1ccc(CNC(=O)N(Cc2ccc(F)cc2)C2CCN(C)CC2)cc1 [compound of formula (I), N-(1-methylpiperidin-4-yl)-N-(4-flourophenylmethyl)-N′-(4-(2-methylpropyloxy)phenylmethyl)carbamide]
intrinsic activity at remaining monoaminergic receptor subtypes [4]: lacks intrinsic activity
doses reducing spontaneous locomotion (spontaneous locomotion): ≥ 3 mg/kg
effect on amphetamine hyperactivity, administered alone ([5]; 10.0 mg/kg P.O. and below, 3.0 mg/kg I.P. d-amphetamine): did not reduce hyperactivity
amphetamine hyperactivity with the combination ([5]; 10.0 mg/kg P.O. compound of formula (I) combined with s.c. haloperidol): completely reversed
effect on the beneficial effects of levodopa on parkinsonian symptoms ([6]; oral): potentiates the benefical effects of levodopa on parkinsonian symptoms
levodopa-associated dyskinesias and motor response fluctuations ([6]; oral once daily, 30 to 300 mg escalating weekly): show a reducing in levodopa-associated dyskinesias and motor response fluctuations
tolerability ([6]; oral, 30 to 300 mg): tolerate the compound of formula (I) at all doses administered
effect on MK-801 hyperactivity ([7]; i.p. administration, 1 mg/kg): attenuated MK-801 hyperactivity
minimum effective dose attenuating MK-801 hyperactivity ([7]; p.o., rats (FIG. 2B)): 10 mg/kg
minimum effective dose attenuating MK-801 hyperactivity ([7]; s.c., rats (FIG. 2A)): 1 mg/kg
effect on L-dopa induced dyskinesias [8]: significantly diminish L-dopa induced dyskinesias in a dose dependent manner

Compound: O=C(CCCN1CCC(O)(c2ccc(Cl)cc2)CC1)c1ccc(F)cc1 [haloperidol, reference compound]
minimally significant dose reducing amphetamine hyperactivity, in combination ([5]; haloperidol s.c. with 10.0 mg/kg P.O. compound of formula (I)): 0.03 mg/kg
minimally significant dose reducing amphetamine hyperactivity, alone ([5]; s.c., 3.0 mg/kg I.P. d-amphetamine): 0.1 mg/kg

Reference: patent publication US10525046B2 (ACADIA Pharmaceuticals Inc., priority 2003, dated 2020)
